In patent US20090312385A1, “CANNABINOID RECEPTOR MODULATORS FOR TREATING NON-IMMEDIATE TYPE ALLERGIC DISEASES” (Glenmark Pharmaceuticals, S.A., priority 2007, published 2009):

Test system: TDI-induced dermatitis in BALB/c mice
Experiment: toluene-2,4-diisocyanate (TDI) induced dermatitis model, topical treatment of the ear
Type: in vivo, female BALB/c mice
Conditions: for inhibition of various parameters: standard reference compounds, dose not stated
Protocol: The sensitization protocol was as per W. Baumer et al., J Pharm Pharmacol., 55(8):1107-14 (2003). The abdominal region was shaved and depilated using Veet. Subsequently, the horny layers were stripped 10 times with adhesive tape. For active sensitization, 100 μl of 5% TDI was applied to the stripped skin for 3 consecutive days.
Prescreening was performed 21 days later. In brief, the sensitized mice were challenged with an application of 10 μl of 0.5% TDI on both the inner and outer surface of the left ear, the right ear served as control in each mouse. Ear thickness was measured with a cutimeter (Model7309, Mitutoyo Japan) prior to challenge and 24 hours after challenge. […] Animals were rested for 7 days after prescreening, to allow for the ear thickness to return to normal.
Five groups (A-E) were studied.
On day 28, test compounds. GRC-CPD-A (0.3, 3 and 10%) were prepared using DMSO and acetone in the ratio of 1:9 as solvents. 20 μl (10 μl on each side of the ear) of the formulation was applied to the left ear of each mouse as per the study design 6 hours prior to challenge with TDI. 20 μl of TDI was applied to both inner and outer surface of the left ear of each mouse. The right ear served as control and received an application of 10 μl of acetone on each side. 24 hours post TDI challenge ear thickness was determined and ears were collected for histology and eosinophil peroxidase (EPO) determination. Ear sections were processed for histology and stained with hematoxylin-eosin (HE) and lesions were scored as follows: 0=no cell infiltration or edema, 1-4-granulocyte infiltration/oedema depending on severity. A combined congo-red-toluidine blue staining was also carried out to identify eosinophils which were then quantified per 12 high power fields (hpf). EPO levels in ear sections were determined by standard […] assay using […] as substrate.
All data were expressed as mean±SEM. All groups were subjected to one-way ANOVA and means were compared using Dunnett's post hoc test using GraphPad prism software.

[1] = conclusion, in a dose dependent manner (0.3, 3 and 10% topical)

Compound	EPO levels [1]	ear swelling (oedema and eosinophil infiltration) [1]	inhibition of ear swelling (topical application of 10%, 6 hours prior to TDI challenge, ear thickness 24 hours post TDI challenge, FIG. 1)	histological scores (topical application of 10%, HE-stained ear sections, lesion score 0-4, 24 hours post TDI challenge, FIG. 2)	EPO levels in the ear (topical application of 10%, eosinophil peroxidase in ear sections, 24 hours post TDI challenge, FIG. 4)	eosinophil infiltration (topical application of 10%, eosinophils per 12 hpf in ear sections, 24 hours post TDI challenge, FIG. 3)	inhibition of various parameters
CC(C)(C)NC(=O)c1nn(-c2ccc(F)cc2F)c2c1[C@H]1CC[C@@H]2C1 [GRC-CPD-A, (1R,7S)—N5-(tert-butyl)-3-(2,4-difluorophenyl)-3,4-diazatricylco[5.2.1.0^2,6]deca-2(6),4-diene-5-carboxamide]	effectively inhibits	effectively inhibits	significant (p<0.001) dose-dependent inhibition	improved	inhibited	inhibited	–
C[C@]12CCC(=O)C=C1CC[C@@H]1[C@@H]2[C@@H](O)C[C@@]2(C)[C@H]1CC[C@]2(O)C(=O)CO [hydrocortisone, reference compound]	–	–	–	–	–	–	significant inhibition
C=CC[C@@H]1/C=C(\C)C[C@H](C)C[C@H](OC)[C@H]2O[C@@](O)(C(=O)C(=O)N3CCCC[C@H]3C(=O)O[C@H](/C(C)=C/[C@@H]3CC[C@@H](O)[C@H](OC)C3)[C@H](C)[C@@H](O)CC1=O)[C@H](C)C[C@@H]2OC [tacrolimus, reference compound]	–	–	–	–	–	–	significant inhibition
